Results published in PubChem BioAssay (NCI).
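These data come from cells grown in 96-well plates and exposed to compound for 48 hours at five concentrations. GI50: concentration for 50% inhibition of growth. TGI is the concentration that stops growth completely.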

Columns and labels:
Assay in all cases: inhibition of tumour cell growth, NCI panel, 48 h
[1] = test system: MOLT-4 leukemia
[2] = test system: NCI-H23 lung
[3] = test system: SR leukemia
[4] = test system: IGROV1 ovarian
[5] = test system: SF-539 CNS
[6] = test system: NCI-H226 lung
[7] = test system: NCI/ADR-RES ovarian
[8] = test system: SK-MEL-2 melanoma
[9] = test system: BT-549 breast
[10] = test system: SW-620 colon
[11] = test system: SN12C renal
[12] = test system: MALME-3M melanoma
[13] = test system: RXF 393 renal
[14] = test system: ACHN renal
[15] = test system: SK-MEL-5 melanoma
[16] = test system: OVCAR-5 ovarian
[17] = test system: SF-268 CNS
[18] = test system: OVCAR-8 ovarian
[19] = test system: PC-3 prostate
[20] = test system: EKVX NSCLC
[21] = test system: UACC-257 melanoma
[22] = test system: OVCAR-4 ovarian
[23] = test system: HOP-92 NSCLC
[24] = test system: SF-295 CNS
[25] = test system: HS 578T breast
[26] = test system: HCC-2998 colon
[27] = test system: COLO 205 colon
[28] = test system: HT29 colon
[29] = test system: TK-10 renal
[30] = test system: UO-31 renal
[31] = test system: CAKI-1 renal
[32] = test system: U251 CNS
[33] = test system: K-562 leukemia
[34] = test system: SNB-75 CNS
[35] = test system: SK-MEL-28 melanoma
[36] = test system: LOX IMVI melanoma
[37] = test system: M14 melanoma
[38] = test system: NCI-H460 lung
[39] = test system: A549 NSCLC
[40] = test system: SK-OV-3 ovarian
[41] = test system: RPMI-8226 leukemia
[42] = test system: MDA-MB-435
[43] = test system: HCT-116 colon
[44] = test system: HCT-15 colon
[45] = test system: T-47D breast
[46] = test system: KM12 colon
[47] = test system: HL-60(TB) leukemia
[48] = test system: OVCAR-3 ovarian
[49] = test system: CCRF-CEM leukemia
[50] = test system: HOP-62 NSCLC
[51] = test system: SNB-19 CNS
[52] = test system: MDA-MB-231 breast
[53] = test system: A498 renal
[54] = test system: MCF7 breast
[55] = test system: UACC-62 melanoma
[56] = test system: DU-145 prostate
[57] = test system: 786-0 renal
[58] = test system: NCI-H522 lung

Work on NC(=O)C(Br)CBr (stereo unspecified) yielded a GI50 [1] of 1.42 µM, a TGI [1] of 4.15 µM and a GI50 [2] of 1.74 µM. The TGI [2] was 3.42 µM, the GI50 [3] was 0.394 µM and the TGI [3] was 2.56 µM. For the same molecule, the GI50 [4] was 1.59 µM, the TGI [4] was 4.78 µM and the GI50 [5] was 3.01 µM. The TGI [5] was 10.3 µM, the GI50 [6] was 7.68 µM and the TGI [6] was 27.1 µM. The GI50 [7] was 2.93 µM, the TGI [7] was over 24.1 µM and the GI50 [8] was 2.26 µM. The GI50 [9] was 2.39 µM, the TGI [9] was 7.4 µM and the GI50 [10] was 1.29 µM. It also gave a TGI [10] of 2.79 µM, a GI50 [11] of 3.93 µM and a TGI [11] of 20.6 µM. The GI50 [12] was 1.91 µM, the TGI [12] was 4.53 µM and the GI50 [13] was 1.27 µM. The TGI [13] was 2.7 µM, the GI50 [14] was 0.816 µM and the TGI [14] was 2.18 µM. For the same molecule, the GI50 [15] was 4.08 µM, the TGI [15] was 14.3 µM and the GI50 [16] was 5.73 µM. For the same molecule, the TGI [16] was 13.7 µM, the GI50 [17] was 2.65 µM and the TGI [17] was 8.29 µM. It also gave a GI50 [18] of 1.8 µM, a TGI [18] of 4.44 µM and a GI50 [19] of 2.51 µM. For the same molecule, the TGI [19] was 11.7 µM, the GI50 [20] was 1.9 µM and the TGI [20] was 4.92 µM. For the same molecule, the GI50 [21] was 1.64 µM, the TGI [21] was 3.27 µM and the GI50 [22] was 1.25 µM. The TGI [22] was 2.55 µM, the GI50 [23] was 1.39 µM and the TGI [23] was 3.1 µM. It also gave a GI50 [24] of 14.7 µM, a TGI [24] of 35.2 µM and a GI50 [25] of 2.86 µM. For the same molecule, the TGI [25] was 14.3 µM, the GI50 [26] was 2.18 µM and the TGI [26] was 4.78 µM. The GI50 [27] was 1.03 µM, the TGI [27] was 2.56 µM and the GI50 [28] was 1.59 µM. The TGI [28] was 9.42 µM, the GI50 [29] was 2.24 µM and the TGI [29] was 6.33 µM. It also gave a GI50 [30] of 2.55 µM, a TGI [30] of 12.7 µM and a GI50 [31] of 0.472 µM. The TGI [31] was 1.16 µM, the GI50 [32] was 3.73 µM and the TGI [32] was 14.7 µM. The GI50 [33] was 1.38 µM, the TGI [33] was 5.29 µM and the GI50 [34] was 5.3 µM. For the same molecule, the TGI [34] was 19.9 µM, the GI50 [35] was 1.69 µM and the TGI [35] was 3.29 µM. It also gave a GI50 [36] of 1.98 µM, a TGI [36] of 5.93 µM and a GI50 [37] of 1.63 µM. It also gave a TGI [37] of 3.02 µM, a GI50 [38] of 3.56 µM and a TGI [38] of 13.5 µM. It also gave a GI50 [39] of 3.71 µM, a TGI [39] of 10.6 µM and a GI50 [40] of 12 µM. It also gave a TGI [40] of 25.1 µM, a GI50 [41] of 2.82 µM and a TGI [41] of 11.9 µM. For the same molecule, the GI50 [42] was 1.74 µM, the TGI [42] was 4.33 µM and the GI50 [43] was 1.3 µM. It also gave a TGI [43] of 2.56 µM, a GI50 [44] of 1.46 µM and a TGI [44] of 3.39 µM. It also gave a GI50 [45] of 1.76 µM, a TGI [45] of 6.4 µM and a GI50 [46] of 7.63 µM. It also gave a TGI [46] of 21 µM, a GI50 [47] of 0.728 µM and a TGI [47] of 3.05 µM. For the same molecule, the GI50 [48] was 1.48 µM, the TGI [48] was 2.83 µM and the GI50 [49] was 1.05 µM. For the same molecule, the TGI [49] was 6.93 µM, the GI50 [50] was 18.4 µM and the TGI [50] was 43.5 µM. The GI50 [51] was 15.5 µM, the TGI [51] was 29.6 µM and the GI50 [52] was 2.3 µM. For the same molecule, the TGI [52] was 4.76 µM, the GI50 [53] was 15.3 µM and the TGI [53] was 29 µM. The GI50 [54] was 2.18 µM, the TGI [54] was 11.5 µM and the GI50 [55] was 2.14 µM. For the same molecule, the TGI [55] was 6.07 µM, the GI50 [56] was 2.26 µM and the TGI [56] was 5.72 µM. For the same molecule, the GI50 [57] was 5.65 µM and the TGI [57] was 16.1 µM.

Molecule O=Nc1c(-c2cccc([N+](=O)[O-])c2)nc2cnccn12 has a TGI [1] of 27.6 µM, a TGI [2] of 36.1 µM and a TGI [3] of 18.4 µM. The TGI [4] was 38.6 µM, the TGI [5] was 59.1 µM and the TGI [6] was 50.7 µM. It also gave a TGI [7] of 54.5 µM, a TGI [8] of 68.1 µM and a TGI [9] of over 100 µM. For the same molecule, the TGI [10] was 35.7 µM, the TGI [11] was 59.7 µM and the TGI [12] was 56.5 µM. It also gave a TGI [13] of over 100 µM, a TGI [14] of 14.2 µM and a TGI [15] of over 100 µM. It also gave a TGI [16] of 44 µM, a TGI [17] of 79.4 µM and a TGI [18] of 53.8 µM. It also gave a TGI [19] of 62.6 µM, a TGI [20] of over 100 µM and a TGI [21] of 41 µM. For the same molecule, the TGI [22] was 41.4 µM, the TGI [23] was 38.4 µM and the TGI [24] was over 100 µM. For the same molecule, the TGI [25] was over 100 µM, the TGI [27] was 66.7 µM and the TGI [28] was 40.1 µM. It also gave a TGI [29] of 26.3 µM, a TGI [30] of 25.2 µM and a TGI [31] of 43 µM. It also gave a TGI [32] of 42.4 µM, a TGI [33] of 49.2 µM and a TGI [34] of over 100 µM. For the same molecule, the TGI [35] was 50.3 µM, the TGI [36] was 28.5 µM and the TGI [58] was 33.3 µM. For the same molecule, the TGI [37] was 42 µM, the TGI [38] was over 100 µM and the TGI [39] was 83.8 µM. It also gave a TGI [40] of over 100 µM, a TGI [42] of 43.1 µM and a TGI [43] of 18.8 µM. The TGI [44] was 30.7 µM, the TGI [45] was 49.6 µM and the TGI [46] was 95.4 µM. The TGI [47] was over 100 µM, the TGI [48] was 37.4 µM and the TGI [49] was 1.72 µM. For the same molecule, the TGI [50] was 90.1 µM, the TGI [51] was over 100 µM and the TGI [52] was 26.7 µM. For the same molecule, the TGI [54] was over 100 µM, the TGI [55] was 36.8 µM and the TGI [56] was 40.2 µM. It also gave a TGI [57] of 37.4 µM.

ON(CCc1ccncc1)Cc1ccccc1 showed a TGI [1] of over 100 µM, a TGI [2] of over 100 µM and a TGI [3] of over 100 µM. It also gave a TGI [4] of over 100 µM, a TGI [5] of over 100 µM and a TGI [6] of over 100 µM. For the same molecule, the TGI [7] was over 100 µM, the TGI [9] was over 100 µM and the TGI [10] was over 100 µM. It also gave a TGI [11] of over 100 µM, a TGI [12] of over 100 µM and a TGI [13] of over 100 µM. The TGI [14] was over 100 µM, the TGI [15] was over 100 µM and the TGI [16] was over 100 µM. For the same molecule, the TGI [17] was over 100 µM, the TGI [18] was over 100 µM and the TGI [20] was over 100 µM. It also gave a TGI [22] of over 100 µM, a TGI [23] of over 100 µM and a TGI [24] of over 100 µM. The TGI [25] was over 100 µM, the TGI [27] was over 100 µM and the TGI [28] was over 100 µM. For the same molecule, the TGI [30] was over 100 µM, the TGI [31] was over 100 µM and the TGI [33] was over 100 µM. For the same molecule, the TGI [34] was over 100 µM, the TGI [35] was over 100 µM and the TGI [36] was over 100 µM. The TGI [58] was over 100 µM, the TGI [37] was over 100 µM and the TGI [39] was over 100 µM. For the same molecule, the TGI [40] was over 100 µM, the TGI [41] was over 100 µM and the TGI [42] was over 100 µM. For the same molecule, the TGI [43] was over 100 µM, the TGI [44] was over 100 µM and the TGI [45] was over 100 µM. For the same molecule, the TGI [46] was over 100 µM, the TGI [48] was over 100 µM and the TGI [50] was over 100 µM. It also gave a TGI [51] of over 100 µM, a TGI [53] of over 100 µM and a TGI [54] of over 100 µM. For the same molecule, the TGI [55] was over 100 µM, the TGI [56] was over 100 µM and the TGI [57] was over 100 µM.
